The text below walks through data of patent US20220340976A1, “RAPID PREDICTION OF DRUG RESPONSIVENESS” (THE BROAD INSTITUTE, INC., priority 2019, published 2022).

SMILES strings stand for the structures. “Also recorded” adds a separate entry of the source.

Test [1] concerns pools of cancer cell lines. Nature of the test: Relative cell line abundance estimated from pooled scRNA-seq. The class given is cell-based, human. The following applies: particularly 24 hours post-treatment. An excerpt:
Estimates of the effects of perturbations on relative cell line abundance were obtained by counting the number of (QC-passing) single cells from each cell line in each treatment condition, adding a ‘pseudo-count’ of 1, and normalizing counts across cell lines per condition. These relative abundance estimates were averaged across samples for each treatment condition to compute the log2-fold-change difference between drug-treated and control relative cell line abundances.
For selective compounds, cell cycle effects were also well-correlated with measured viability effects, such that drugs typically had larger effects in more sensitive cell lines (FIG. 18).

Test [2] relates to pools of well-characterized cancer cell lines. The test is described as follows: MIX-Seq: scRNA-seq transcriptional response profiling of drug-treated cell line pools. The class given is cell-based, human. The method, then: Cell line pools were made in sets of 25 cell lines. These 25 cell line pools were chosen based on doubling time and were grown in RPMI in the absence of phenol red and with 10% FBS. Cell lines were then washed with 10 mLs of PBS, and trypsinized with 1 mL trypsin which was then removed. Ten mLs of RPMI media were added to the cells post trypsinization and resuspended. Cells were then counted by a Nexcelom cellometer using 10 uL of cell suspension and 10 ul of Trypan blue. Equal numbers of cells per cell line were mixed together and spun down at 1,250 RPM for 5 minutes. Media was aspirated and the cells were resuspended in Sigma Cell Freezing media and frozen in 1 mL aliquots. This process was repeated for all of the 25 cell line pools. For MIX-Seq experiments involving larger pools, multiple 25 cell line pools were thawed in RPMI with 10% FBS, spun down and resuspended in 5 mLs of RPMI media. Cells were then counted and equal numbers were combined together on the day of plating to form larger pools of up to ˜100 cell lines.
For drug treatment experiments, cell line pools were cultured in RPMI containing 10% fetal bovine serum, in the absence of phenol red and penicillin/streptomycin. Cell line pools were validated as Mycoplasma free prior to initiating the experiment. Cell line pools were plated at 200,000 cells per well in 6 well plates containing 2 mL of RPMI culture media described above. […] Cell pools were plated ˜16-20 hours prior to drug treatment. Cells were treated with the described drugs or vehicle (DMSO) with a 0.2% final media DMSO concentration.
Generally cells were harvested after drug treatment using standard cell culture methods. Briefly, after drug treatment cells that were in suspension (presumably containing dead cells from drug treatment) were collected and reserved for addition to the adherent cell fraction. Adherent cells were washed once with 1×PBS, trypsinized in 1 mL trypsin, incubated for 3-7 minutes at 37 C, and then trypsin inactivated with 1 mL growth media. For Cell Hashing, cells were treated with TrypLE Express (ThermoFisher) instead of trypsin to reduce the amount of cell surface proteins digested that may affect the binding of Cell Hashing antibodies.
After trypsinization, adherent and suspension cells were combined for each treatment, pelleted, and resuspended in Cell Capture Buffer (lx PBS with 0.04% BSA). Cells were counted (including trypan blue non-viable cells) and resuspended at a concentration of 1,000 cells per microliter for standard loading on the Chromium Controller (10× Genomics), or at 1,500 cells per microliter for “super loaded” samples. Up to 40,000 cells were loaded per 10× channel for “super loaded” samples, with expected recovery of up to 20,000 cells per channel. Cell suspensions were captured on a 10× Chromium controller using Single Cell 3′ reagent chemistries (either version 2 or and version 3 reagents) FIG. 26.
Sequencing data were processed using 10× Cell Ranger software, run using the Cumulus cloud-based analysis framework (Li et al. 2019). Initial experiments were done with 10× Single Cell 3′ v2 chemistry, and were processed using version 2 of the Cell Ranger software. In later experiments v3 chemistry and the corresponding version 3 of Cell Ranger were used. Reads were aligned to the hg19 reference genome.
To estimate the average transcriptional response of each cell line to a perturbation, the data were first ‘sum-collapsed’—summing read counts across cells for each cell line and treatment condition—to produce a bulk RNA-seq style read counts profile for each sample (Crowell et al. 2019; Lun & Marioni 2017). […]

In the next test the test system is cancer cell lines. To be noted: GDSC and PRISM drug sensitivity data; cited from earlier work.
The next test relates to pool of 24 cell lines. Nature of the test: Trametinib time course: MIX-Seq combined with Cell Hashing. It is filed as cell-based, human. The method, then: For the trametinib time course experiment, cells were treated with trametinib with a staggered dosing schedule so all timepoints could be collected simultaneously. Cells were plated 19 hours prior to the first drug treatment, corresponding to the 48 hour time point. Cells were harvested for 10× capture ˜67 hours after initial seeding.
Cell Hashing (Stoeckius et al., 2018) was performed using the cell harvest method described above with the following changes. All steps were performed on ice. Harvested cells were resuspended in Cell Hashing Staining Buffer (lx PBS with 2% BSA and 0.02% Tween) prior to cell counting. Samples were counted in duplicate with two technical replicates by Countess (Life Technologies) to estimate total cell number. Up to 1,000,000 cells (range 3e5-1e6 cells) were resuspended in 100 microliters of Cell Hashing Staining Buffer. Cells were blocked with 10 microliters of Human TruStain FcX blocking solution (BioLegend) for 10 minutes at 4° C. 100 microliter cell suspensions in Cell Hashing Staining Buffer were then incubated with 2 μL of the appropriate BioLegend TotalSeq™-A Hashing antibody A Hashing antibody (a 1:50 dilution, using a total of 1 μg of antibody per cell suspension). TotalSeq™-A anti-human Hashtag antibodies #4-10 and 12-15 (product codes: 394607, 394609, 394611, 394613, 394615, 394617, 394619, 394623, 394625, 394627, 394629) were used. Cells were washed three times with 0.5 mL of Cell Hashing Staining Buffer and filtered through low volume 40 μm cell strainers (Flowmi). All cell suspensions were recounted to achieve a uniform concentration of 1,500 cells per microliter before pooling for 10× capture. A detailed general protocol is available (www.protocols.io/private/4AC0F6594480B498D8B60EAF6F518E66).
Classification of single-cell treatment conditions, as well as doublet classification, from the hashtag read counts data were performed using DemuxEM (Gaublomme et al. 2019), with default parameters.
The same approach described above was used to estimate the viability-related and viability-independent components of the response at each time point post-trametinib treatment. As substantial transcriptional changes across time points after DMSO-treatment were not observed […], data across DMSO conditions was pooled for analysis.
Leveraging this, responses of a pool of 24 cell lines to trametinib were measured along five time points, ranging from 3 to 48 hours post-treatment, using Cell Hashing to multiplex treatment conditions (FIG. 5A). As controls, DMSO-treated samples were included at each of the 5 time points, in addition to untreated samples, for a total of 11 conditions. Hashtag reads provided robust labeling of treatment conditions, with good tagging efficiency across all cell lines (FIGS. 21A and 21B). Since substantial differences in DMSO-treated cells were not observed across time points (FIG. 22), they were pooled together for subsequent analysis, yielding a total of 13,713 clearly-tagged single cells across all treatment conditions and cell lines.

Test [3] relates to pools of cancer cell lines. The test is described as follows: Single-cell heterogeneity analysis of drug responses (clustering of scRNA-seq profiles). The following applies: lung cell line IALM, 24 hours post-treatment. The class given is cell-based, human. From the text: Specifically, the edgeR quasi-likelihood approach was used (Lun et al. 2016), following the pipeline in Soneson et al. 2018, with the cell detection rate (the fraction of genes with non-zero reads detected) included as a covariate.
To identify subpopulations of bortezomib treated cells (FIGS. 4D-4F), Seurat's default methods were used to normalize the data, detect variable genes, and compute PCs (using 5000 most variable genes, and 50 PCs). Seurat's default clustering methods were then used to cluster cells for each cell line (using the 20 nearest neighbors, and a clustering resolution parameter of 0.25).
To identify sub-populations of cells from a given cell line in a consistent fashion across baseline and treatment conditions (for analysis and presentation in FIG. 19), the following procedure was employed. After restricting to cells from the target cell line, the scTransform method (Hafemeiester et al. 2019) was used to normalize the data, identify 5,000 variable genes, and regress out experimental condition as a covariate to align clusters across conditions. Seurat's default clustering methods (using the top 10 PCs, 20 nearest neighbors, and a clustering resolution parameter of 0.25) were then used to identify clusters jointly across treated and control cells.

Setting [4] is: integrating across all cell lines.
Setting [5] is: 99 cell-line pool, 24 hours post-treatment.

For the compound `Cc1c2c(nn1C)CSCc1cc(n(C)n1)CSc1cc(c3ccccc3c1)OCCCc1c(C(=O)O)n(C)c3c-2c(Cl)ccc13` [AZD5591], the “drug-induced change in relative cell abundance versus measured drug sensitivity” value in test [1] is listed as “this relationship was observed most strongly”. The “robust transcriptional response signature” value in test [2] (6 and/or 24 hours post-treatment) is recorded as “did not produce strong and/or selective transcriptional responses; also recorded: did not produce robust transcriptional response signatures; also recorded: a robust transcriptional response to the drug was not observed”. Also, the “long-term viability response across cell lines” value with cancer cell lines is given as “strong selective viability responses”.

`CC(=O)Nc1cccc(-n2c(=O)n(C3CC3)c(=O)c3c(Nc4ccc(I)cc4F)n(C)c(=O)c(C)c32)c1` [trametinib]: in the test with pool of 24 cell lines (3 hours after treatment, sensitive cell line RCM1 and insensitive line TEN), the EGR1 expression result is listed as “dramatically down-regulated”. For the same compound, in the test on pool of 24 cell lines (setting [4]), the “time at which viability-independent down-regulation of the KRAS signaling pathway emerged” value is 3 hours after treatment; the “time at which viability-related down-regulation of cell cycle genes started” value is on record as 24 hours after treatment; the “time of maximal down-regulation of viability-independent genes such as EGR1 and DUSP6” value is 3 hours post-treatment. Also, in the test on pool of 24 cell lines (sensitive line RCM1 vs insensitive line TEN, time course 3 to 48 hours), the MCMI expression entry is “selectively down-regulated only in the sensitive line RCM1, and only after 12-24 hours post-treatment”. For the same compound, the “time of selective down-regulation of GINS2, E2F1 and MCM4 in sensitive cell lines” value with pool of 24 cell lines (viability-related response) is 12-24 hours post-treatment. Moreover, in test [2] (setting [5]), the “viability-independent response component (β0)” value was “strong down-regulation of MAPK signaling genes, including EGR1, ETV4/5, DUSP4/5/6, and SPRY2/4, KRAS signaling pathways, and TNF-alpha signaling, as well as up-regulation of the interferon response”; the “viability-related response component (β1)” value is listed as “strong down-regulation of cell-cycle processes”. Besides, the “difference in response between two baseline subpopulations” value in test [3] is given as “subtle but significant differences”.
